This note sets out measurements from US20040142977A1, “4-Substituted-picolinic acid amide derivatives useful as fungicides” (priority 2001, published 2004).

Each structure is given as a SMILES string.

Consider `O=Cc1ccnc(C(=O)Nc2ccc(Oc3ccc(C(F)(F)F)cc3)cc2)c1O` [1-2, 2-{N-para-[4-(trifluoromethylphenoxy)phenyl]} aminocarbonyl-3-hydroxy-4-formyl pyridine], for which the melting point stood at 160 °C.

For orientation: melting point means the temperature of the solid-liquid transition.
